The structures appear in SMILES notation. In brackets after ≈: the same amount, converted by molar mass. Activity calls are given as the source filed them. The rule behind the calls is not given here.

Data set [1] deals with Mycobacterium tuberculosis. Briefly: Antituberculosis activity against Mycobacterium tuberculosis H37Rv assessed as complete growth inhibition after 5 days. The format is functional. The following applies: 120 h.
The subject of data set [2] is Mycobacterium tuberculosis. Briefly: Antituberculosis activity against Mycobacterium tuberculosis H37Rv assessed as complete growth inhibition at 20 uM after 5 days. The format is functional. The following applies: 120 h.
The subject of data set [3] is Mycobacterium tuberculosis. Briefly: Bactericidal activity against Mycobacterium tuberculosis H37Rv under aerobic and replicating condition assessed as reduction in viability at 124 uM measured over 7 days by time kill kinetic study relative to control. The format is functional.
Data set [4] concerns Mycobacterium tuberculosis. Briefly: Bactericidal activity against Mycobacterium tuberculosis H37Rv under non-replicating condition assessed as reduction in viability at 124 uM measured over 7 days by time kill kinetic study relative to control. The format is functional.
The test system of data set [5] is Mycobacterium tuberculosis. Briefly: Antituberculosis activity against Mycobacterium tuberculosis H37Rv assessed as complete growth inhibition at 56 uM in presence of hemin. The format is functional, organism-based.
Data set [6] relates to Mycobacterium tuberculosis. Briefly: Antituberculosis activity against Mycobacterium tuberculosis H37Rv assessed as complete growth inhibition at 56 uM in absence of hemin. The format is functional, organism-based.
Data set [7] deals with Mycobacterium tuberculosis. Briefly: Antituberculosis activity against Mycobacterium tuberculosis H37Rv grown in liquid media using glucose as carbon source assessed as growth inhibition. The format is functional.
Data set [8] deals with Mycobacterium tuberculosis. Briefly: Antituberculosis activity against Mycobacterium tuberculosis H37Rv grown in liquid media using palmitate as carbon source assessed as growth inhibition. The format is functional.
Data set [9] relates to Mycobacterium tuberculosis. Briefly: Antituberculosis activity against Mycobacterium tuberculosis H37Rv grown in solid media assessed as growth inhibition by serial proportion method. The format is functional.
Data set [10] deals with Rattus norvegicus. Briefly: Volume of distribution at steady state in Sprague-Dawley rat at 10 mg/kg, po after 24 hrs. Also noted: dose 10 mg/kg, route oral. The following applies: in vivo. The format is ADME, organism-based.
The test system of data set [11] is Rattus norvegicus. Briefly: AUC in Sprague-Dawley rat at 10 mg/kg, po after 24 hrs. The format is ADME, organism-based, Plasma. Also noted: time < 24 hr, dose 10 mg/kg, route oral. Conditions: in vivo.
The nature of data set [12]: Oral bioavailability in Sprague-Dawley rat at 10 mg/kg after 24 hrs. The format is ADME, organism-based. The following applies: in vivo.
The subject of data set [13] is Mycobacterium tuberculosis. Briefly: Antituberculosis activity against Mycobacterium tuberculosis H37Rv assessed as complete growth inhibition after 5 days using liquid media. The following applies: 120 h. The format is functional.
Data set [14] deals with Mycobacterium tuberculosis. Briefly: Antituberculosis activity against Mycobacterium tuberculosis H37Rv assessed as complete growth inhibition after 5 days using solid media by serial proportion method. The format is functional. The following applies: 120 h.

With `FC(F)(F)c1ccc(CNc2nc(N3CCCCC3)nc3ccccc23)cc1`, the MIC99 – broadly, the lowest concentration that inhibits either 99% of growth or 99% of the strains tested, depending on the study – came out at 6.6 µM (≈ 2.55 µg/mL) in [1], 28 µM (≈ 10.8 µg/mL) in data set [7], 28 µM (≈ 10.8 µg/mL) in data set [8] and 16 µM (≈ 6.18 µg/mL) in [9]. The inhibition (commonly the percentage by which the read-out fell short of the control) at 20 µM in data set [2] worked out at 99%. Moreover, the “fold change (FC)” value in [3] was 4; in data set [4], 3. Further, the result in data set [5] and in [6] was Active.
Regarding `Fc1ccc(Cn2cnc3c(N4CCCCC4)nc4ccccc4c32)cc1`, in data set [2], the inhibition at 20 µM came to 98%. For the same compound, the Vdss in data set [10] worked out at 14.2 L/kg. Further, the AUC (in general, the area under the concentration-time curve, a measure of exposure) in data set [11] came out at 27.4 ng·h/mL. The bioavailability (usually dose-corrected exposure relative to a reference, in per cent) in data set [12] amounted to 3.4%. Also, the MIC99 worked out at 13.8 µM (≈ 4.97 µg/mL) in data set [13] and 27.7 µM (≈ 9.98 µg/mL) in [14].
